The values that follow come from patent US10363282B2, “Analogs of C5a and methods of using same” (priority 2010, dated 2019).

Read-outs that look alike come from different tables or passages of the source. Where no end group is shown, it is not given here. [ ]: non-standard residue; d: D form. NMeL = CN[C@@H](CC(C)C)C(=O)O

The subject of test [1] is MRSA. It is filed as in vivo, C57B1/6 mice. The note with it: for lesion size in CD88 −/− background vs EP67-treated CD88 +/+ background: mouse, in vivo.
The subject of test [2] is neutrophils. In words: In vivo neutrophil chemotaxis: histopathology and myeloperoxidase assay. The note with it: for histopathologic analysis of skin tissue: 250 μg s.c., no bacteria. On the set-up: species or system CD1 mice. Here is the method: Neutrophil chemotaxis and myeloperoxidase assay. Neutrophil recruitment at the site of injection by EP67 or sEP67 was examined using an in vivo chemotaxis assay as described previously (van Sorge N M, et al., PloS One 2008; 3:e2964). Briefly, 250 μg EP67 or sEP67 were injected subcutaneously into the right flank of CD1 mice. The injection was repeated after 24 h. Mice were euthanized 4 h after the second injection and the site of injection excised for histopathoglogic analysis or determination of myeloperoxidase (MPO) activity as described previously (van Sorge N M, et al., supra). The assay was carried out two times and the samples analyzed in duplicate.
Neutrophil influx is essential for the protective action of EP67. […] Neutrophil recruitment to the site of EP67 injection was further analyzed using an in vivo neutrophil recruitment assay as described previously (van Sorge N M, et al., supra; and Banerjee A, et al., Cell Microbiol; 12:1576-1588). Neutrophil migration was assessed in skin homogenates following injection of EP67 or sEP67 by determining the level of neutrophil enzyme myeloperoxidase (MPO), which serves as an effective indication of neutrophil infiltration (Banerjee A, et al., supra; and Bradley P P, et al., J Invest Dermatol 1982; 78:206-209). This method compares well with other in vivo assays of neutrophil chemotaxis (van Sorge N M, et al., supra).

In test [3] the test system is E. coli strain DH5α. The test is described as follows: E. coli growth (OD600) with peptide. It is filed as cell-based. The note with it: for effect on log phase growth (OD600): added at OD600 0.2, 500 μg/m, LB or TSB. The procedure:
E. coli strain DH5α was grown overnight in mls of Lennox Broth (LB). This culture was diluted to an optical density at […] (OD600) of 0.06. The diluted E.coli was dispensed in 1.5 ml aliquots into separate tubes and 1.5 ml of EP67 (YSFKDMP(MeL)aR (SEQ ID NO: 4)), EP54 (YSFKPMPLaR (SEQ ID NO: 3)), scrambled-EP67 (s-EP67) or scrambled-EP54 in LB was added to obtain a final concentration of 500 μg/ml with the E. coli at an OD600 of 0.03. A culture in LB was also prepared. The cultures were incubated at 37° C. with shaking and the OD600 readings recorded hourly. In order to determine whether the growth media altered the effectiveness of EP67, LB was replaced with an alternative growth media, Tryptic Soy Broth (TSB).
To test the efficacy of EP67 on bacteria growing in log phase, overnight cultures of DH5α were grown in either LB or TSB. The cultures were diluted to an OD600 of 0.03 and incubated at 37° C. with shaking until they reached an OD600 of 0.2 at which time either EP67 or s-EP67, in the appropriate media, were added to a final concentration of 500 μg/m. DH5α control cultures (absence of additives) were also prepared. The tubes were further shaken at 37° C. and OD600 readings were taken hourly.

The test system of test [4] is S. aureus (Newman strain). In words: S. aureus in vitro EP67 killing curves. The note with it: dilution series, LB; higher concentrations. It is filed as cell-based. Here is the method: 150 μl of LB growth medium plus 50 μl of EP67 or s-EP67 were added to individual culture wells resulting in a dilution series of 6 wells per EP67 or s-EP67. A “no EP67” well (control) was included at the end of each series. S. aureus (Newman strain) was allowed to grow to an OD600 of 0.4 and each well of the dilution series was inoculated with 5μl of the culture. Two wells with no bacterial inoculums were included to serve as controls. Plates were incubated at 37° C. with agitation and the OD600 of each well was measured hourly using a plate reader.

The subject of test [5] is bronchoalveolar lavage (BAL) cells. The test is described as follows: BAL cell FACS analysis after EP67 insufflation. In kind it is in vivo, mice. The procedure:
In short, EP67 (3 mg/kg) was delivered directly to the lungs of mice through insufflation (IN). […] Lungs were lavaged with PBS to isolate the bronchoalveolar lavage (BAL) cells for staining and FACS analysis.

Test [6] concerns S. aureus (USA300 LAC strain) biofilm. The test is described as follows: S. aureus catheter biofilm model. The note with it: Day 3, relative to sEP67 and PBS vehicle.
Description: A S. aureus (USA300 LAC strain) biofilm was established on a hollow catheter (1 cm in length) inserted subcutaneously into C57BL/6 mice by introducing 1000 CFUs of S. aureus into the catheter lumen. At the time of infection, one dose of EP67 (200 μg/ml dissolved in PBS) was introduced. At both 24 and 48 h following infection, a series of four injections of EP67 were made; two into each open end of the catheter (20 μl each) and two along the top and bottom at points perpendicular to the middle of the catheter (50 μl each). Samples of the biofilm and surrounding tissue were obtained at Day 3 and assessed for the presence of viable bacteria by standard culture methods.
For test [7], the system named is influenza A/A/PR/8. In words: Influenza-induced weight loss after one EP67 treatment. In kind it is in vivo, mice.
In test [8] the test system is influenza A/PR/8. It is filed as in vivo, mice. The note with it: uninfected animals treated with EP67, one day later.
Test [9] has as its system GBS. In words: Group B Streptococcus (GBS) meningitis model. It is filed as in vivo, CD1 mice. The note with it: 250 ug i.p. at day −1, 0, 1 and 2; brain and blood cfu 96 hours post-injection. The procedure: 8-week old female CD1 mice were treated with 250 ug of EP67 or s-EP67 at day −1, 0, 1 and 2 via i.p. injection. GBS was injected via i.p. at 1×10^9 cfu/mouse. Brains and blood were harvested from each mouse 96 hours post-injection. The tissue was homogenized, diluted and plated to determine the cfu/g bacteria.

Test [10] relates to influenza. The test is described as follows: ELISA for anti-influenza antibodies in serum. In kind it is in vivo, mice. The note with it: each EP67 treatment group.
Test [11] has as its system bronchoalveolar lavage (BAL) cells. In words: BAL cell response of aged mice to EP67 insufflation. In kind it is in vivo.
The mark [12] stands for this setting: EP67 3 mg/kg insufflation, one day later.

With “(MeL)RMYKPaFDS ([NMeL]RMYKP[dA]FDS) [sEP67, reference compound]”, in test [1], the “lesion size in CD88 −/− background vs EP67-treated CD88 +/+ background” value is “significantly larger”. The “histopathologic analysis of skin tissue” value in test [2] is reported as “normal pathology”. Moreover, the “effect on log phase growth (OD600)” value in [3] is listed as “little or no effect on growth”.
Consider “YSFKDMP(MeL)aR (YSFKDMP[NMeL][dA]R; listed as Homo sapiens) [EP67, C-terminal analog of human C5a]”, for which the “effect on bacterial growth (OD600)” value in test [4] was “dose dependent inhibitory effect”; in test [3] (500 μg/ml, start OD600 0.03, LB or TSB), “direct bacteriostatic/bacteriocidal effects”. Besides, the “CD11b+CD11c− cells (GR-1+ neutrophils) in alveolar space” value in [5] (setting [12]) is reported as “a large population of CD11b^+CD11c^− cells appeared in the alveolar space”. Further, the “exudate macrophages (exMac) in BAL cells” value in test [5] (setting [12]) is “appearance of cells bearing the CD11b^+CD11c^+ phenotype of exudate macrophages (exMac)”. Further, the “dose dependence of EP67-induced changes in BAL populations” value in test [5] (mouse, in vivo) was “strict dose-response”. The “time course of the EP67 response in BAL cells: neutrophils” value in test [5] (seven days post EP67 administration) was “the neutrophils were largely lost”. In addition, the lesion size result in [1] (CD88 −/− animals, EP67 vs sEP67) is “no difference in lesion size”; in test [1] (wild-type CD88 +/+ animals, EP67 compared to sEP67) it was “significantly smaller lesions”. In addition, the “lesion size in CD88 −/− background vs EP67-treated CD88 +/+ background” value in test [1] is on record as “significantly larger”. Further, in [2] (250 μg s.c. twice, 4 h after second injection, compared to sEP67), the “myeloperoxidase (MPO) levels in skin homogenates (accumulating neutrophils)” value was “significantly higher”. Moreover, the “histopathologic analysis of skin tissue” value in [2] is on record as “massive influx of inflammatory cells, including neutrophils”. Further, in test [6], the “bacterial burdens in surrounding tissue” value is “significant decrease in bacterial burdens”. The “bacterial burdens within the biofilm” value in test [6] is recorded as “significant decrease in bacterial burdens”. For the same substance, the “protection from influenza-induced morbidity” value in test [7] (treated on day 2 after infection) and in test [7] (treated on day 3 after infection) was “not associated with any protection” throughout. Further, the influenza-induced weight loss result in test [7] (treated one day after infection) is listed as “significant protection from influenza-induced weight loss”; in [7] (treated the day before infection, vs non-treated animals), “lost significantly less weight”; in [7] (treated the day of infection, vs non-treated animals), “lost significantly less weight”. Besides, the “effect on log phase growth (OD600)” value in test [3] was “significantly reduce and/or stop log phase growth”. In test [8], the “influx of innate effectors (exMacs, neutrophils) in BAL” value is given as “displayed this influx of innate effectors”. The “protection against GBS infection in the central nervous system” value in [9] was “protects against GBS infections in the central nervous system”. In addition, in test [10], the “anti-influenza Abs in serum” value is on record as “high concentration of anti-influenza Abs”. For the same substance, in [11], the “exMacs and neutrophils in alveolar space” value is “a large population of exMAcs and neutrophils into the alveolar space”.
